The numbers were not newly measured in patent publication US20170224835A1, “Antibody Drug Conjugates” (priority 2015, published 2017), which cites them from elsewhere.

For data set [1] the following is noted: in vitro.
Data set [2] deals with in vivo tumor models.

Read-outs that look alike come from different tables or passages of the source.

For `COc1cccc2c1C(=O)c1c(O)c3c(c(O)c1C2=O)C[C@@](O)(C(=O)CO)C[C@@H]3O[C@H]1C[C@H](N2CCO[C@H](OC)C2)[C@H](O)[C@H](C)O1` [Nemorubicin, (8S,10S)-6,8,11-trihydroxy-10-((2R,4S,5S,6S)-5-hydroxy-4-((S)-2-methoxymorpholino)-6-methyltetrahydro-2H-pyran-2-yloxy)-8-(2-hydroxyacetyl)-1-methoxy-7,8,9,10-tetrahydrotetracene-5,12-dione], the “cytotoxicity / cell killing compared with other anthracyclines” value in data set [1] was “more potent cell killing property”.

As for `COc1cccc2c1C(=O)c1c(O)c3c(c(O)c1C2=O)C[C@@](O)(C(=O)CO)C[C@@H]3O[C@H]1C[C@H]2[C@H](O[C@@H]3[C@@H](OC)OCCN32)[C@H](C)O1` [PNU-159682, 3′-deamino-3″,4′-anhydro-[2″(S)-methoxy-3″(R)-oxy-4″-morpholinyl]doxorubicin], the “cytotoxicity / cell killing compared with other anthracyclines” value in data set [1] is “significantly more cytotoxic than Nemorubicin”; in data set [1] (listed as PNU (159682)) it was “more cytotoxic than nemorubicin and doxorubicin”. Besides, the “efficacy in in vivo tumor models” value in data set [2] was “effective”.
